{"source": "PubChem BioAssay AID248", "about": "(DTP/NCI, 2004)", "system": "L1210 leukemia ip in BDF1 mice, survival T/C", "assay": "NCI In Vivo Anticancer Drug Screen. Data for tumor model L1210 Leukemia (intraperitoneal) in B6D2F1 (BDF1) mice", "conditions": "endpoint: mean survival time, higher = longer survival", "method_in_brief": "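Tumor was transplanted into mice, which were then dosed with test compound or vehicle alone. Survival was recorded for each group, and the treated figure was expressed relative to the control figure.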", "key": {"[1]": {"conditions": "dose: 100.0 mg/kg/injection, schedule: Q01DX001 (ip), vehicle: saline"}, "[2]": {"conditions": "dose: 200.0 mg/kg/injection, schedule: Q01DX001 (ip), vehicle: saline"}}, "note": "Where “and” joins values, the source holds several entries; their conditions need not be identical. Equal values may be shown once. Toxic doses and inconclusive results are not listed.", "data": [{"smiles": "CC(=O)[C@]1(O)Cc2c(O)c3c(c(O)c2[C@@H](OC2CC(N)C(O)C(C)O2)C1)C(=O)c1c(O)cccc1C3=O", "note": "(stereo not given in full)", "values": [{"measurement": "T/C", "setting": "dose: 0.05 mg/kg/injection, schedule: Q03DX003 (ip), vehicle: saline", "value": "109 % of control"}, {"measurement": "T/C", "setting": "dose: 0.1 mg/kg/injection, schedule: Q03DX003 (ip), vehicle: saline", "value": "123 % of control"}, {"measurement": "T/C", "setting": "dose: 0.2 mg/kg/injection, schedule: Q01DX001 (ip), vehicle: saline", "value": "122 % of control"}, {"measurement": "T/C", "setting": "dose: 0.4 mg/kg/injection, schedule: Q01DX009 (ip), vehicle: saline", "value": "154 % of control"}, {"measurement": "T/C", "setting": "dose: 0.4 mg/kg/injection, schedule: Q03DX003 (ip), vehicle: saline", "value": "157 % of control"}, {"measurement": "T/C", "setting": "dose: 0.8 mg/kg/injection, schedule: Q01DX001 (ip), vehicle: saline", "value": "192 % of control"}, {"measurement": "T/C", "setting": "dose: 0.8 mg/kg/injection, schedule: Q01DX009 (ip), vehicle: saline", "value": "98 % of control"}, {"measurement": "T/C", "setting": "dose: 0.8 mg/kg/injection, schedule: Q03DX003 (ip), vehicle: saline", "value": "159 % of control"}, {"measurement": "T/C", "setting": "dose: 1.6 mg/kg/injection, schedule: Q01DX001 (ip), vehicle: saline", "value": "166 % of control"}]}, {"smiles": "O=C1C=Cc2c(ccc3c4c(ccc23)=CC(=O)C=C4)=C1", "values": [{"measurement": "T/C", "setting": "dose: 100.0 mg/kg/injection, schedule: Q01DX001 (ip), vehicle: saline with Tween-80", "value": "88 % of control"}, {"measurement": "T/C", "setting": "dose: 200.0 mg/kg/injection, schedule: Q01DX001 (ip), vehicle: saline with Tween-80", "value": "90 % of control"}, {"measurement": "T/C", "setting": "dose: 400.0 mg/kg/injection, schedule: Q01DX001 (ip), vehicle: saline with Tween-80", "value": "90 % of control"}]}, {"smiles": "CCOC(=O)c1cc(C(=O)O)[nH]c(=O)c1C#N", "values": [{"measurement": "T/C", "setting": "dose: 100.0 mg/kg/injection, schedule: Q04DX003 (ip), vehicle: saline with Tween-80", "value": "97 % of control"}, {"measurement": "T/C", "setting": "dose: 400.0 mg/kg/injection, schedule: Q04DX003 (ip), vehicle: saline with Tween-80", "value": "95 % of control"}]}, {"smiles": "COc1cc2cc3cc4cc(OC)c(OC)cc4c(C)[n+]3cc2cc1OC", "note": "(tested in a mixture with another compound)", "values": [{"measurement": "T/C", "setting": "dose: 2.5 mg/kg/injection, schedule: Q01DX009 (ip), vehicle: saline", "value": "106 % of control"}, {"measurement": "T/C", "setting": "dose: 5.0 mg/kg/injection, schedule: Q01DX009 (ip), vehicle: saline", "value": "108 % of control and 118 % of control"}, {"measurement": "T/C", "setting": "dose: 10.0 mg/kg/injection, schedule: Q01DX009 (ip), vehicle: saline", "value": "108 % of control"}, {"measurement": "T/C", "setting": "dose: 20.0 mg/kg/injection, schedule: Q01DX009 (ip), vehicle: saline", "value": "104 % of control"}, {"measurement": "T/C", "setting": "dose: 40.0 mg/kg/injection, schedule: Q01DX009 (ip), vehicle: saline", "value": "110 % of control and 111 % of control"}, {"measurement": "T/C", "setting": "dose: 80.0 mg/kg/injection, schedule: Q01DX009 (ip), vehicle: saline", "value": "92 % of control"}]}, {"smiles": "CCNc1nnnn1-c1ccccc1", "values": [{"measurement": "T/C", "setting": "[1]", "value": "97 % of control"}, {"measurement": "T/C", "setting": "[2]", "value": "101 % of control"}]}, {"smiles": "Nc1ncnc2c1ncn2C1CC(CO)C(O)C1O", "note": "(stereo not given)", "values": [{"measurement": "T/C", "setting": "dose: 2.0 mg/kg/injection, schedule: Q01DX015 (ip), vehicle: Klucel (hydroxypropylcellulose) (HPC)", "value": "114 % of control"}, {"measurement": "T/C", "setting": "dose: 3.0 mg/kg/injection, schedule: Q01DX015 (ip), vehicle: Klucel (hydroxypropylcellulose) (HPC)", "value": "91 % of control"}, {"measurement": "T/C", "setting": "dose: 4.4 mg/kg/injection, schedule: Q01DX015 (ip), vehicle: Klucel (hydroxypropylcellulose) (HPC)", "value": "93 % of control"}, {"measurement": "T/C", "setting": "dose: 6.25 mg/kg/injection, schedule: Q01DX009 (ip), vehicle: carboxymethylcellulose (CMC)", "value": "98 % of control"}, {"measurement": "T/C", "setting": "dose: 6.7 mg/kg/injection, schedule: Q01DX015 (ip), vehicle: Klucel (hydroxypropylcellulose) (HPC)", "value": "96 % of control"}, {"measurement": "T/C", "setting": "dose: 10.0 mg/kg/injection, schedule: Q01DX015 (ip), vehicle: Klucel (hydroxypropylcellulose) (HPC)", "value": "97 % of control"}, {"measurement": "T/C", "setting": "dose: 12.5 mg/kg/injection, schedule: Q01DX009 (ip), vehicle: carboxymethylcellulose (CMC)", "value": "97 % of control"}, {"measurement": "T/C", "setting": "dose: 15.0 mg/kg/injection, schedule: Q01DX015 (ip), vehicle: Klucel (hydroxypropylcellulose) (HPC)", "value": "98 % of control"}, {"measurement": "T/C", "setting": "dose: 25.0 mg/kg/injection, schedule: Q01DX009 (ip), vehicle: carboxymethylcellulose (CMC)", "value": "89 % of control"}, {"measurement": "T/C", "setting": "dose: 50.0 mg/kg/injection, schedule: Q01DX001 (ip), vehicle: saline", "value": "93 % of control"}, {"measurement": "T/C", "setting": "[1]", "value": "102 % of control"}, {"measurement": "T/C", "setting": "[2]", "value": "91 % of control"}, {"measurement": "T/C", "setting": "dose: 400.0 mg/kg/injection, schedule: Q01DX001 (ip), vehicle: saline", "value": "88 % of control"}]}, {"smiles": "COC(=O)c1[nH]cnc1N", "values": [{"measurement": "T/C", "setting": "dose: 50.0 mg/kg/injection, schedule: Q01DX001 (ip), vehicle: carboxymethylcellulose (CMC)", "value": "97 % of control"}, {"measurement": "T/C", "setting": "dose: 100.0 mg/kg/injection, schedule: Q01DX001 (ip), vehicle: carboxymethylcellulose (CMC)", "value": "105 % of control"}, {"measurement": "T/C", "setting": "dose: 200.0 mg/kg/injection, schedule: Q01DX001 (ip), vehicle: carboxymethylcellulose (CMC)", "value": "97 % of control"}, {"measurement": "T/C", "setting": "dose: 400.0 mg/kg/injection, schedule: Q01DX001 (ip), vehicle: carboxymethylcellulose (CMC)", "value": "94 % of control"}]}, {"smiles": "CCC(C)C(C=NCC(CCN1CCOCC1)(c1ccc2ccccc2c1)C(C)CC)(CCN1CCOCC1)c1ccc2ccccc2c1", "note": "(stereo not given)", "values": [{"measurement": "T/C", "setting": "dose: 50.0 mg/kg/injection, schedule: Q04DX002 (ip), vehicle: Klucel (hydroxypropylcellulose) (HPC)", "value": "100 % of control"}, {"measurement": "T/C", "setting": "dose: 100.0 mg/kg/injection, schedule: Q04DX002 (ip), vehicle: Klucel (hydroxypropylcellulose) (HPC)", "value": "92 % of control"}, {"measurement": "T/C", "setting": "dose: 200.0 mg/kg/injection, schedule: Q04DX002 (ip), vehicle: Klucel (hydroxypropylcellulose) (HPC)", "value": "92 % of control"}]}, {"smiles": "CN(C(=O)C1(C)CC2C=CC1C2)c1ccccc1", "note": "(stereo not given)", "values": [{"measurement": "T/C", "setting": "dose: 100.0 mg/kg/injection, schedule: Q01DX001 (ip), vehicle: Klucel (hydroxypropylcellulose) (HPC)", "value": "100 % of control"}, {"measurement": "T/C", "setting": "dose: 200.0 mg/kg/injection, schedule: Q01DX001 (ip), vehicle: Klucel (hydroxypropylcellulose) (HPC)", "value": "102 % of control"}, {"measurement": "T/C", "setting": "dose: 400.0 mg/kg/injection, schedule: Q01DX001 (ip), vehicle: Klucel (hydroxypropylcellulose) (HPC)", "value": "97 % of control"}]}]}
